Experimental data: paper PMC11264232, “Are the metal identity and stoichiometry of metal complexes important for colchicine site binding and inhibition of tubulin polymerization?” (Dalton Transactions (Cambridge, England : 2003), 2024)
Marks after values point to notes of the source that are not given here.

How the values were obtained:
NCI-H23 = experiment: NCI-60 five-dose screen; format: cell-based, human; settings: Non-Small Cell Lung Cancer
Excerpt: (§1) The proligands HL^1–HL^3 and their corresponding metal complexes 1–8 prepared in this study were subjected to evaluation of their anticancer potential, including selectivity towards specific types of cancer: leukemia, non-small cell lung (NSCLC), colon, central nervous system (CNS), melanoma, ovarian, renal, prostate and breast cancers, by the National Cancer Institute's Developmental Therapeutics Program. This evaluation involved the utilization of the NCI 60 human tumor cell line panel.[57]
(§2) The NCI-60 SRB assay was performed as described previously.[76] GI50 values (the concentration of the metal complex causing 50% growth inhibition), TGI value (the concentration of the complex causing 0% cell growth), and LC50 (the concentration of the complex causing 50% cell death) were interpolated from dose–response curves that were plots of percentage cell growth versus concentration of test compounds.

NCI-H522 = experiment: NCI-60 five-dose screen; format: cell-based, human; settings: Non-Small Cell Lung Cancer
Excerpt: as §1, §2

purified tubulin = experiment: Inhibition of tubulin polymerization; format: biochemical; settings: read-out: Inhibition of tubulin polymerization IC50 ± SD
Excerpt: As a reference for comparison, combretastatin A-4 (CA-4) and Cu(HL^1)Cl2 were used.
The methods used for determination of the IC50 values for tubulin assembly and inhibition of [^3H]colchicine binding were as described previously.[77]

COLO 205 = experiment: NCI-60 five-dose screen; format: cell-based, human; settings: Colon cancer
Excerpt: as §1, §2

NCI/ADR-RES = experiment: NCI-60 five-dose screen; format: cell-based, human; settings: Ovarian cancer
Excerpt: as §1, §2

HCT-116 = experiment: NCI-60 five-dose screen; format: cell-based, human; settings: Colon cancer
Excerpt: as §1, §2

K-562 = experiment: NCI-60 five-dose screen; format: cell-based, human; settings: Leukemia
Protocol: (§3) This evaluation involved the utilization of the NCI 60 human tumor cell line panel.[57]
as §2

T-47D = experiment: NCI-60 five-dose screen; format: cell-based, human; settings: Breast cancer
Excerpt: as §1, §2

A549/ATCC = experiment: NCI-60 five-dose screen; format: cell-based, human; settings: Non-Small Cell Lung Cancer
Excerpt: as §1, §2

SNB-75 = experiment: NCI-60 five-dose screen; format: cell-based, human; settings: CNS cancer
Excerpt: as §1, §2

[1] = system: microtubule system in A549 cancer cells; experiment: α-Tubulin immunostaining; format: cell-based, human; settings: 80 μM, 24 h
Protocol: Since we found remarkable antiproliferative activity exerted by some of the tested compounds by the BrdU assay, and it was also shown that some of the compounds might interfere with tubulin polymerization in cell-free tests, we examined whether the metal complexes or the proligands influence the structure of the microtubule system in A549 cancer cells. For this purpose, the cells were treated with either DMSO, HL^1–HL^3, or with complexes 1, 2, 4 and 5, or were left untreated, followed by α-tubulin immunostaining (Fig. 11). In the untreated samples normal cell morphology and filamentous microtubule structure was observed.
The structure of microtubules was visualized by α-tubulin immunostaining on A549 cells. For this, 5 × 10^4 cells per well were seeded onto coverslips in 24-well plates. […] Then samples were fixed with 4% formaldehyde (Molar Chemicals, Halásztelek, Hungary), permeabilized with 0.3% Triton-X-100 (Calbiochem, Merck Millipore, Darmstadt, Germany) and were blocked using 5% BSA (Sigma-Aldrich, St Louis, Missouri, USA) diluted in PBS. Then the cells were incubated with anti-α-tubulin antibody (Thermo Fisher Scientific, monoclonal mouse antibody, DM1A, Waltham, Massachusetts, USA) in a 1 : 300 dilution in 1% BSA followed by Alexa 488 fluorophore-conjugated goat anti-mouse secondary antibody (Abcam, Cambridge, UK) in a 1 : 600 dilution in 1% BSA. […]

SF-295 = experiment: NCI-60 five-dose screen; format: cell-based, human; settings: CNS cancer
Excerpt: as §1
(§4) GI50 values (the concentration of the metal complex causing 50% growth inhibition), TGI value (the concentration of the complex causing 0% cell growth), and LC50 (the concentration of the complex causing 50% cell death) were interpolated from dose–response curves that were plots of percentage cell growth versus concentration of test compounds.

BT-549 = experiment: NCI-60 five-dose screen; format: cell-based, human; settings: Breast cancer
Excerpt: as §1, §2

[2] = Reduction by glutathione (GSH), UV–vis; format: physicochemical; settings: pH 7.4, glove box
Excerpt: The reduction of complexes 1, 2, 4 and 5 by glutathione (GSH), one of the major cellular reductants, was investigated at pH 7.4 by recording UV–vis spectra in a glove box.

ACHN = experiment: NCI-60 five-dose screen; format: cell-based, human; settings: Renal cancer
Excerpt: as §1, §2

MCF7 = experiment: NCI-60 five-dose screen; format: cell-based, human; settings: Breast cancer
Excerpt: as §4

MOLT-4 = experiment: NCI-60 five-dose screen; format: cell-based, human; settings: Leukemia
Protocol: as §3, §2

SR = experiment: NCI-60 five-dose screen; format: cell-based, human; settings: Leukemia
Protocol: as §3, §2

NCI-H322M = experiment: NCI-60 five-dose screen; format: cell-based, human; settings: Non-Small Cell Lung Cancer
Excerpt: as §1, §2

HT29 = experiment: NCI-60 five-dose screen; format: cell-based, human; settings: Colon cancer
Excerpt: as §1, §2

OVCAR-3 = experiment: NCI-60 five-dose screen; format: cell-based, human; settings: Ovarian cancer
Excerpt: as §1, §2

SW-620 = experiment: NCI-60 five-dose screen; format: cell-based, human; settings: Colon cancer
Excerpt: as §1, §4

[3] = Cyclic voltammetry in DMSO/nBu4NPF6; format: physicochemical; settings: scan rate 100 mV s^−1
Protocol: Cyclic voltammetric experiments with 0.5 mM solutions of 1–3 in 0.1 M nBu4NPF6 (puriss quality from Fluka (Schwerte, Germany), dried under reduced pressure at 70 °C for 24 h before use) supporting electrolyte in DMSO (SeccoSolv max. 0.025% H2O, Merck) were performed under argon atmosphere using a three-electrode setup with a platinum disk or a glassy carbon disk working electrode (from Ionode, Australia), platinum wire as a counter electrode, and silver wire as a pseudo reference electrode. All potentials in voltammetric studies were quoted vs. ferricenium/ferrocene (Fc^+/Fc) redox couple. A Heka PG310USB (Lambrecht, Germany) potentiostat with a PotMaster 2.73 software package served for the potential control in voltammetric studies. In situ ultraviolet-visible-near-infrared (UV–Vis–NIR) spectroscopic and spectroelectrochemical measurements were performed on a spectrometer Avantes (Model AvaSpec-2048_14-USB2) in 1 cm quartz cuvette or the spectroelectrochemical cell kit ([…]3) with the Pt-microstructured honeycomb working electrode, purchased from Pine Research Instrumentation (Lyon, France). The cell was positioned in the CUV-UV Cuvette Holder (Ocean Optics, Ostfildern, Germany) connected to the diode-array UV–Vis–NIR spectrometer by optical fibres. UV–Vis–NIR spectra were processed using the AvaSoft 7.7 software package. Halogen and deuterium lamps were used as light sources (Avantes, Model AvaLight-DH-S-BAL, Apeldoorn, The Netherlands). EPR spectra were measured with a X-band cw-EPR spectrometers EMX and EMX plus (Bruker) at room temperature or 100 K. Spectroelectrochemical experiments were performed in a flat cell equipped with a Pt mesh working electrode using nBu4NPF6/DMSO electrolyte. Measurements in frozen solvent glass were done in MeCN/DMF 1 : 1 v/v. Complexes 4 and 5 were dissolved under ambient conditions, and complex 3 was reduced with a stoichiometric equivalent of cobaltocene in a N2 glovebox (N2 < 2 ppm, H2O < 1 ppm). The MeCN/DMF solutions were flash frozen in liquid N2 prior to transfer to the N2 flow cryostat precooled at 100 K inside the cavity of the EPR resonator. EPR spectra were analyzed with the Easyspin toolbox,[75] running on Matlab.

TK-10 = experiment: NCI-60 five-dose screen; format: cell-based, human; settings: Renal cancer
Excerpt: as §4

In the case of `CC(=NN=C([S-])Nc1cc(C)c(O)c(C)c1)c1cccc(CN2CCOCC2)n1.CC(=NN=C([S-])Nc1cc(C)c(O)c(C)c1)c1cccc(CN2CCOCC2)n1.O=[N+]([O-])[O-].[Fe+3]` [Complex 4, [Fe^III(L^2)2]NO3], the GI50 (NCI-H23) is reported as 2230 nM, the GI50 (NCI-H522) is reported as 2070 nM and the IC50 (purified tubulin) is reported as 3400 ± 60 nM. The GI50 (COLO 205) was 1530 nM, the GI50 (NCI/ADR-RES) was 2980 nM and the GI50 (HCT-116) was 2300 nM. For the same molecule, the GI50 (K-562) was 2000 nM, the GI50 (T-47D) was 1900 nM and the GI50 (A549/ATCC) was 2440 nM. The GI50 (SNB-75) was 1580 nM, the “effect on microtubule structure and cell morphology” value [1] was “even greater disruption” and the GI50 (SF-295) was 1940 nM. For the same molecule, the GI50 (BT-549) was 2190 nM, the “reduction by glutathione (GSH)” value [2] was “reduction by GSH” and the GI50 (ACHN) was 3100 nM. The GI50 (MCF7) was 1950 nM, the GI50 (MOLT-4) was 2720 nM and the GI50 (SR) was 2430 nM. The GI50 (NCI-H322M) was 3260 nM, the GI50 (HT29) was 7120 nM and the GI50 (OVCAR-3) was 1990 nM. For the same molecule, the GI50 (SW-620) was 2300 nM, the “1st oxidation potential (peak potential Ep)” value [3] was 0.40^i* volts vs. Fc^+/Fc and the “1st reduction potential (E1/2 or Ep)” value [3] was −0.35^r volts vs. Fc^+/Fc. The “2nd reduction potential (E1/2 or Ep)” value [3] was −1.85^q volts vs. Fc^+/Fc and the GI50 (TK-10) was 4130 nM.
